Values quoted from earlier work in paper PMC11730002 (Turkish Journal of Pharmaceutical Sciences, 2025).

Experiments:
[1] = molecular target: T1, pancreatic lipase (Sus scrofa, UniProt P00591); conditions: read-out: Pancreatic lipase inhibition IC50; in vitro study
T1 sequence (P00591 1-450): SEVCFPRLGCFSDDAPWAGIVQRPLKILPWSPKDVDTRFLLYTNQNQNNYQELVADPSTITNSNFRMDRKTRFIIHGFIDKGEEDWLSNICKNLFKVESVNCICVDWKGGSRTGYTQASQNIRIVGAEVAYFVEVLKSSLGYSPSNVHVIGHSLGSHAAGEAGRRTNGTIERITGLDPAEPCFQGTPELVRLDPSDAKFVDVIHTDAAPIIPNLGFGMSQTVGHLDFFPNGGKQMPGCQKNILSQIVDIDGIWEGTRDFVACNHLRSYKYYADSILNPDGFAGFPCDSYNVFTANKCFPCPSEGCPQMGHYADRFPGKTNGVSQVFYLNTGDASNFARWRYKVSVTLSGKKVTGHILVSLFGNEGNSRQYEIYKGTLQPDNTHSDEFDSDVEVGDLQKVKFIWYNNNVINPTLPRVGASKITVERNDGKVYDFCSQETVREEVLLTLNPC

[2] = molecular target: lipase; conditions: read-out: Lipase inhibitory activity IC50

O=C(/C=C/c1ccc(O)c(O)c1)O[C@H](Cc1ccc(O)c(O)c1)C(=O)O [Rosmarinic acid]
IC50 [1]: 347 µM
IC50 [2]: 62.8 ± 2.7 µM
